Experiments:
mouse Nurr1 full-length = biological target: T1, mouse Nurr1 full-length (Mus musculus, UniProt Q06219); experiment: Luciferase reporter gene assay for Nurr1 transcriptional activity in SK-N-BE2C cells; format: cell-based; details: relative activity over control (luminescence value; 1.0)
T1 construct: pcDNA3.1 Myc/His mouse Nurr1 full-length construct; expressed in transfected cells; host or cells: SK-N-BE2C
Summary of the method: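 SK-N-BE2C cells co-transfected with mouse full-length Nurr1, firefly reporter carrying response element and Renilla control (8:1:1), then exposed to compound doses for 24 h at 37 °C. Dual-luciferase readout; firefly RLU normalized to Renilla after background subtraction, then to DMSO-treated wells.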

Nurr1 = Nurr1 (Homo sapiens, UniProt P43354); experiment: Activation of Nurr1 / Nurr1's transcription function by prostaglandins (stated without method); format: cell-based
[1] = biological target: ligand-binding domain (LBD) of Nurr1 (Homo sapiens, UniProt P43354); experiment: Binding of prostaglandins to Nurr1-LBD (NMR titration)
Description: Cyclopentenone prostaglandin's A1/A2 are dehydrated metabolites of their precursors, the cyclopentanone prostaglandins E1/E2. In PGE1/E2, a hydroxyl group is attached to the C11 atom, which is responsible for the covalent attachment between PGA1 and Nurr1. This is evident from the electron density observed between the PGA1/A2's C11 atom (Rajan, S. et al. Nat Chem Biol 16, 876-886 (2020); U.S. patent application Ser. No. 16/334,550) and Nurr1's Cys566 sulphur, a characteristic feature of PGA1/A2 binding. […] Based on these one could conclude that both PGA1 and PGE1 can be used to design analogs, preferably using PGE1 which is better suited for chemic synthesis and modifications as it lacks the reactive C11 site, concealed by the hydroxyl group (Rajan, S. et al. Nat Chem Biol 16, 876-886 (2020)). […] One such is the misoprostol, which enhanced Nurr1's transcription function. Thus, we chose PGE1 and Misoprostol as the candidate molecules to make modification.

[2] = test system: 6-OHDA Parkinson's disease model; experiment: 6-OHDA Parkinson's disease model, apomorphine induced rotational behavior, intranasal administration; format: in vivo, C57BL/6 mice; details: apomorphine (0.5 mg/kg) induced rotation; daily intranasal 0.2 mg/ml; 6-OHDA mice
Protocol: Mice were randomly divided into […]: Control (n=4); 6-OHDA (6-hydroxydopamine)+(n=7), 6-OHDA+PGE1 (n=8); 6-OHDA+BSC15 (the compound of the present invention) (n=8); 6-OHDA+BSC19 (the compound of the present invention) (n=7).
Week 9-10 C57BL/6 mice were intranasally administered daily with 0.2 mg/ml of compounds to be tested for 3 days before 6-OHDA injection. Stereotaxic surgery was performed by injecting 7.5 μg of 6-OHDA into the left striatum (AP: +0.5 mm, ML: −2.0 mm, VD: −3.5 mm) of the mouse. Compounds to be tested, i.e., PGE1, BSC15 and BSC19 were prepared by double emulsion solvent evaporation of 1:4 molar ratio with 2-hydroxypropyl-β-cyclodextrin. After surgical recovery, the daily intranasal administration continued with a weekly assessment of apomorphine (0.5 mg/kg) induced rotational behavior. Animal care and handling were performed according to the protocol approved by Nanyang Technological University's Institutional Animal Care and Use Committee.

ligand-binding domain (LBD) of Nurr1, sequence (P43354 360-595 limits assumed): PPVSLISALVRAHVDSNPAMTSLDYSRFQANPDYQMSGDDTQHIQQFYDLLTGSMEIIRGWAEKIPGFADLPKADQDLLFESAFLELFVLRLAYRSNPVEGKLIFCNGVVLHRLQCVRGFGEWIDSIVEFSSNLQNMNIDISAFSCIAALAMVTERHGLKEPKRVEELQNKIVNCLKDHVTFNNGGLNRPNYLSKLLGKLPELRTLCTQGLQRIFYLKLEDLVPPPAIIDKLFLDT
Nurr1, sequence (P43354 whole entry, species assumed, the tested form may be a part): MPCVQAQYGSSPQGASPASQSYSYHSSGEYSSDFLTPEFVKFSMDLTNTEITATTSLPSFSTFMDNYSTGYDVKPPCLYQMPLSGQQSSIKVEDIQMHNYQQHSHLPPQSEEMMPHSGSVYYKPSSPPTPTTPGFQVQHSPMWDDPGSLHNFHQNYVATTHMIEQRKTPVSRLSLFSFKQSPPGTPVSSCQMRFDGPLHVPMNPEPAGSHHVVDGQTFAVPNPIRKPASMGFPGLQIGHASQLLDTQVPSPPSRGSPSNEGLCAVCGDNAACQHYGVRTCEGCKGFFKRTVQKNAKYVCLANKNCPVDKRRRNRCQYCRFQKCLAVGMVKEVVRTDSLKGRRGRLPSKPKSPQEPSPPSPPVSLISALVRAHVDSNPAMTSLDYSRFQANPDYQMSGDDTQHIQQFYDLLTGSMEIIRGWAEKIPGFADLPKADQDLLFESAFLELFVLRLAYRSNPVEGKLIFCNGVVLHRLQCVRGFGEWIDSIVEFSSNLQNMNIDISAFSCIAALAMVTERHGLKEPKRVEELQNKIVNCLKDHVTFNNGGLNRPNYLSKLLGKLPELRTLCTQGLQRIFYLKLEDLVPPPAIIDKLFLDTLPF
T1 sequence (Q06219 whole entry): as the sequence (P43354 whole entry, species assumed, the tested form may be a part) above, with T131S, G134S, E354D counted along it

SMILES	Fold activity (1 uM) (mouse Nurr1 full-length)	also measured
CCCCC(C)(O)C/C=C/[C@H]1[C@@H](O)CC(=O)[C@@H]1CCCCCCC(=O)OC (stereo partly drawn) [Compound 81, 11β-Misoprostol]	C (below 1.0 (low activity))	
CCCCCC(=O)/C=C/[C@H]1C(O)CC(=O)[C@H]1C/C=C\CCCC(=O)O (some centres unmarked) [Compound 82, 8-iso-15-keto Prostaglandin E2]	B (1.1~2.0 (moderate))	
C[C@@H](O)CCC[C@H](O)/C=C/[C@H]1[C@H](O)CC(=O)[C@@H]1CCCCCCC(=O)O [Compound 83, 19(R)-hydroxy Prostaglandin E1]	B (1.1~2.0 (moderate))	
CCCCC(C)(C)[C@H](O)/C=C/[C@H]1[C@H](O)CC(=O)[C@@H]1CC(=O)CCCCC(=O)O [Compound 84, 16,16-dimethyl-6-keto Prostaglandin E1]	B (1.1~2.0 (moderate))	
CCCCC[C@H](O)/C=C/[C@H]1[C@@H](O)CC(=O)[C@@H]1CCCCCCC(=O)O [Compound 85, 11b-Prostaglandin E1]	C (below 1.0 (low activity))	
CCCCC[C@](C)(O)/C=C/[C@@H]1[C@@H](C/C=C\CCCC(=O)O)[C@@H](O)C[C@H]1O [Compound 86, Carboprost]	C (below 1.0 (low activity))	
CCCCC[C@@H](O)/C=C/[C@H]1[C@H](O)CC(=O)[C@@H]1CCCCCCC(=O)O [Compound 87, 15(R)-PGE1]	C (below 1.0 (low activity))	
CCCCC[C@H](O)/C=C/[C@H]1[C@H](O)CC(=O)[C@@H]1CCCCCCC(=O)NCCO [Compound 88, Alprostadil Ethanolamide]	B (1.1~2.0 (moderate))	
CCCCC[C@H](O)/C=C/[C@H]1[C@H](O)CC(=O)[C@@H]1CCCCCCCO [Compound 89, 1,11a,15S-Trihydroxy-prost-13E-EN-9-ONE]	A (above 2.0 (high activity))	
O=C(O)CCCCCCC1C(=O)NC(=O)N1CCC(O)C1CCCCC1 (centres unmarked) [Compound 90, BW245C]	A (above 2.0 (high activity))	
CC(C)OC(=O)CCC/C=C\C[C@@H]1[C@@H](CC[C@@H](O)CCc2ccccc2)[C@H](O)C[C@@H]1O [Compound 91, Latanoprost]	B (1.1~2.0 (moderate))	
CCCCC[C@H](O)/C=C/[C@@H]1[C@@H](C/C=C\CCCC(=O)O)[C@@H](O)C[C@H]1O.NC(CO)(CO)CO [Compound 92, DinoprostTromethanol]	B (1.1~2.0 (moderate))	
CCCCC[C@H](O)/C=C/[C@H]1[C@H](O)CC(=O)[C@@H]1CCCCC(=O)O [Compound 93, 2,3-DINOR PGE1]	C (below 1.0 (low activity))	
O=C(CCC/C=C\C[C@@H]1[C@@H](CC[C@@H](O)CCc2ccccc2)[C@H](O)C[C@@H]1O)OCCCCO[N+](=O)[O-] [Compound 95, Latanoprostene bunod]	C (below 1.0 (low activity))	
CCCCC[C@H](O)/C=C/[C@H]1C=CC(=O)[C@@H]1CCCCCCC(=O)O [PGA1]		activation of Nurr1 (Nurr1): activate; direct binding to the ligand-binding domain (LBD) of Nurr1 [1]: directly bind; binding site on Nurr1-LBD by NMR titration [1]: interact at same binding site on Nurr1-LBD
CCCCC[C@H](O)/C=C/[C@H]1C=CC(=O)[C@@H]1C/C=C\CCCC(=O)O [PGA2]		activation of Nurr1 (Nurr1): activate; direct binding to the ligand-binding domain (LBD) of Nurr1 [1]: directly bind
CCCCC[C@H](O)/C=C/[C@H]1[C@H](O)CC(=O)[C@@H]1CCCCCCC(=O)O [PGE1, Prostaglandin E1]		activation of Nurr1 (Nurr1): activate; direct binding to the ligand-binding domain (LBD) of Nurr1 [1]: directly bind; binding site on Nurr1-LBD by NMR titration [1]: interact at same binding site on Nurr1-LBD; rotation number [2]: significant reduction
CCCCC[C@H](O)/C=C/[C@H]1[C@H](O)CC(=O)[C@@H]1C/C=C\CCCC(=O)O [PGE2, Prostaglandin E2]		activation of Nurr1 (Nurr1): activate; direct binding to the ligand-binding domain (LBD) of Nurr1 [1]: directly bind
CCCCC(C)(O)C/C=C/[C@H]1[C@H](O)CC(=O)[C@@H]1CCCCCCC(=O)OC (some centres unmarked) [misoprostol, Misoprostol]		Nurr1's transcription function (Nurr1): enhanced
